According to paper PMC7796187, “New Bioactive Peptides Identified from a Tilapia Byproduct Hydrolysate Exerting Effects on DPP-IV Activity and Intestinal Hormones Regulation after Canine Gastrointestinal Simulated Digestion” (Molecules, 2020):
Where a SMILES comes first, the peptide text is derived from it. Where no end group is shown, it is not given here.

test system: STC-1 cells; assay: Active GLP-1 secretion in STC-1 cells, radioimmunoassay of supernatant; type: cell-based; conditions: 1 mM, 2 h, versus buffer control
Description: The Caco-2 cell line was purchased from Sigma-Aldrich (Villefranche-sur-Saône, France) and the STC-1 cell line was a grateful gift received from Corinne Grangette (Univ. Lille, CNRS, Inserm, CHU Lille, Institut Pasteur de Lille, U1019-UMR 8204-CIIL, France). Cells were grown in flask of 75 cm^2 at 37 °C, 5% CO2 atmosphere in DMEM supplemented with 4.5 g L^−1 of glucose, 10% of fetal bovine serum, 100 U mL^−1 of penicillin, 100 µg mL^−1 of streptomycin and 2 mM of L-glutamine. Caco-2 and STC-1 cells were weekly and twice a week subcultured, respectively. All cells used in this study were between the 40 and the 50 passages for Caco-2 cells and between the 10 and 30 passages for STC-1 cells.
When 80–90% confluence was reached, STC-1 cells were trypsinized and seeded at a density of 40,000 cells/well in 24-wells culture plates (ThermoFisher Scientific, Saint Aubin, France) allowing to reach 60–80% confluence. Cell culture medium was removed from each well and cells were washed with phosphate saline buffer (PBS, 10 mM, pH 7.4). 250 µL of digests (2 to 10 mg mL^−1) or synthetic peptides (1 mM) diluted in Hepes buffer (4.5 mM KCl, 1.2 mM CaCl2, 140 mM NaCl and 20 mM Hepes, pH 7.4) were then added. Hepes buffer was used as a negative control. […]

Row | Compound | active GLP-1 release stimulation by synthetic peptide
1 | ELLK | did not lead to GLP-1 secretion
2 | LKPT | able to significantly stimulate active-GLP-1 release

target: T1, Caco-2 DPP-IV activity (Homo sapiens, UniProt P27487); assay: In situ DPP-IV activity inhibition using live confluent Caco-2 cells (Gly-Pro-AMC substrate); type: cell-based; conditions: synthetic peptides identified in basolateral side, read-out: In Situ IC50 (DPP-IV inhibitory activity)
T1 construct: In situ method using confluent Caco-2 cells described by Caron et al. was slightly modified and used to study DPP-IV activity; host or cells: Caco-2 cells, live and confluent, 7 days after seeding
Description: Cells were grown in flask of 75 cm^2 at 37 °C, 5% CO2 atmosphere in DMEM supplemented with 4.5 g L^−1 of glucose, 10% of fetal bovine serum, 100 U mL^−1 of penicillin, 100 µg mL^−1 of streptomycin and 2 mM of L-glutamine. Caco-2 and STC-1 cells were weekly and twice a week subcultured, respectively. All cells used in this study were between the 40 and the 50 passages for Caco-2 cells and between the 10 and 30 passages for STC-1 cells.
In situ method using confluent Caco-2 cells described by Caron et al. was slightly modified and used to study DPP-IV activity. A 1 mM (Gly-Pro-AMC) substrate solution, the digests and the synthetic peptides dilutions were prepared in phosphate saline buffer pH 7.4 (PBS). Briefly, after 7 days of growth, Caco-2 cells were trypsinized and seeded at a density of 8000 cells/well in 96-well optical black plates (Nunc, ThermoFisher Scientific, Rochester, NY, USA). After 7 days, culture media were removed from wells and the cells were washed with 100 µL of PBS buffer (pH 7.4). […] After 5 min of incubation at 37 °C, 50 µL of (Gly-Pro-AMC) substrate solution were added to each well. Fluorescence was recorded every 2 min for 1 h at 37 °C using a Xenius XC spectrofluorometer (Safas Monaco, Monaco). Excitation wavelength was set to […] while the emission wavelength was of 480 nm. The percentage of the DPP-IV activity inhibition was defined as the percentage of DPP-IV activity inhibited by a given concentration of digest or diprotin A (commercial DPP-IV peptide inhibitor) as positive control compared with control buffer response. […] IC50 was expressed in mg mL^−1 or in mM.

T1 sequence (P27487 whole entry): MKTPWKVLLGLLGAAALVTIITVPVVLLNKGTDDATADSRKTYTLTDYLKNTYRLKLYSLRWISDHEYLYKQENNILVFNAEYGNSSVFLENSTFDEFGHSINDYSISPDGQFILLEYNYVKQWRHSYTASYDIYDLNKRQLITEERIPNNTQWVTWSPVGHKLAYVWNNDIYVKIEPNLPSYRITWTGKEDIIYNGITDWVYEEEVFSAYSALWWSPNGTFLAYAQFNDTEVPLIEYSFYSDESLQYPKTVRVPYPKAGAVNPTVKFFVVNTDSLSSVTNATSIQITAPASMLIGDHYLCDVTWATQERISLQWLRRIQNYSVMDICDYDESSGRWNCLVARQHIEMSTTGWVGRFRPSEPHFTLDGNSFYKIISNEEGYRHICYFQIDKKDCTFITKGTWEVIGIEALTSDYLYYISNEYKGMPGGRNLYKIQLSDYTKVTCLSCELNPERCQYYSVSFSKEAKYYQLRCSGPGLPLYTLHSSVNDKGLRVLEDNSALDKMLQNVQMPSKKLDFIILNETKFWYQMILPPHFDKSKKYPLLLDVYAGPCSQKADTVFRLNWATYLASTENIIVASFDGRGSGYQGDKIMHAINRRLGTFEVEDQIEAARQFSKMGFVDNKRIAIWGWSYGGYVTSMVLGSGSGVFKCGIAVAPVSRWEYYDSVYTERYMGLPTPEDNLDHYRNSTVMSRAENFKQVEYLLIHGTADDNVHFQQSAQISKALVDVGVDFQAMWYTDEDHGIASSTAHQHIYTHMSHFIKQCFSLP

Row | IC50 [mM] | Compound
3 | > 2.5 | C[C@@H](O)[C@H](NC(=O)[C@H](Cc1ccc(O)cc1)NC(=O)[C@H](CC(=O)O)NC(=O)[C@@H](N)CCC(=O)O)C(=O)O [EDYT] (H-EDYT-OH; N-terminus and C-terminus assumed)
4 | > 2.5 | CSSGK [CSSGK]
5 | 2.27 | VAPEEHPT
6 | 2.16 | CSSGGY [CSSGGY]
7 | > 2.5 | CC(C)C[C@H](NC(=O)[C@@H]1CCCN1C(=O)[C@@H](N)CC(=O)O)C(=O)N[C@H](C(=O)O)C(C)C [DPLV] (H-DPLV-OH)
8 | > 2.5 | CC(C)C[C@H](NC(=O)[C@H](CC(=O)O)NC(=O)[C@@H]1CCCN1)C(=O)N[C@H](C(=O)O)C(C)C [PDLV] (H-PDLV-OH)
9 | > 2.5 | VDAGAP [VDAGAP]
10 | > 2.5 | C[C@@H](O)[C@H](NC(=O)[C@H](CC(=O)O)NC(=O)[C@@H](N)CCC(=O)O)C(=O)N[C@@H](Cc1ccc(O)cc1)C(=O)O [EDTY] (H-EDTY-OH; N-terminus and C-terminus assumed)

test system: DPP-IV; assay: In vitro (biochemical) DPP-IV inhibitory activity test; conditions: synthetic peptides identified in basolateral side

Row | IC50 [mM] | Compound
11 | > 2.5 | C[C@@H](O)[C@H](NC(=O)[C@H](Cc1ccc(O)cc1)NC(=O)[C@H](CC(=O)O)NC(=O)[C@@H](N)CCC(=O)O)C(=O)O [EDYT] (H-EDYT-OH; N-terminus and C-terminus assumed)
12 | 0.603 | VADTMEVV
13 | > 2.5 | C[C@@H](O)[C@H](NC(=O)[C@H](CC(=O)O)NC(=O)[C@@H](N)CCC(=O)O)C(=O)N[C@@H](Cc1ccc(O)cc1)C(=O)O [EDTY] (H-EDTY-OH; N-terminus and C-terminus assumed)

test system: STC-1 cells; assay: not given; set-up: method as in PMID 32516710; conditions: peptides from egg white SGID intestinal digest; cited from earlier work

Row | Compound | CCK secretion stimulation
14 | VLLPD | able to stimulate CCK secretion in STC-1 cells
15 | VLLPDEVSGL [peptide from egg white SGID intestinal digest] | able to stimulate CCK secretion in STC-1 cells

test system: EECs; assay: not given; set-up: method as in PMID 28460928, doi:10.1016/j.jff.2017.06.047; conditions: hemorphins from bovine hemoglobin digestion; cited from earlier work

Row | Compound | CCK secretion stimulation
16 | VVYPWTQRF [hemorphin released during bovine hemoglobin digestion] | CCK and GLP-1 secretion stimulating peptides
17 | VVYPWT | CCK and GLP-1 secretion stimulating peptides
18 | LVVYPWT [hemorphin released during bovine hemoglobin digestion] | CCK and GLP-1 secretion stimulating peptides
19 | LLVVYPWT [hemorphin released during bovine hemoglobin digestion] | CCK and GLP-1 secretion stimulating peptides

test system: EECs; assay: not given; conditions: cited from earlier work

Row | Compound | GLP-1 secretion stimulation
20 | GWGG | able to stimulate GLP-1 secretion
21 | GGGG | able to stimulate GLP-1 secretion
22 | LGG | able to stimulate GLP-1 secretion
23 | AAAA | able to stimulate GLP-1 secretion
24 | GPVRGPFPIIV [literature GLP-1 stimulating peptide] | able to stimulate GLP-1 secretion

same assay, conditions: egg white protein digest peptides; cited from earlier work

Row | Compound | GLP-1 secretion stimulation
25 | PFL | able to stimulate GLP-1 secretion
26 | RVASMASEKM [peptide from egg white protein digest] | GLP-1 secretagogue

same assay, conditions: hemorphins from bovine hemoglobin digestion; cited from earlier work

Row | Compound | GLP-1 secretion stimulation
27 | VVYPWTQRF [hemorphin released during bovine hemoglobin digestion] | CCK and GLP-1 secretion stimulating peptides
28 | VVYPWT | CCK and GLP-1 secretion stimulating peptides
29 | LVVYPWT [hemorphin released during bovine hemoglobin digestion] | CCK and GLP-1 secretion stimulating peptides
30 | LLVVYPWT [hemorphin released during bovine hemoglobin digestion] | CCK and GLP-1 secretion stimulating peptides

same assay, conditions: sequences from bovine hemoglobin intestinal digest; cited from earlier work

Row | Compound | GLP-1 secretion stimulation
31 | ANVST | able to stimulate the secretion of GLP-1
32 | KAAVT | able to stimulate the secretion of GLP-1
33 | YGAE | able to stimulate the secretion of GLP-1
34 | TKAVEH | able to stimulate the secretion of GLP-1

test system: murine GLUTag cells; assay: not given; set-up: method as in earlier work; conditions: α-actinin-2 sequences; cited from earlier work

Row | Compound | GLP-1 secretion stimulation
35 | ASDKPYIL [α-actinin-2 derived peptide] | also active
36 | KPYIL | able to stimulate the GLP-1 secretion in murine GLUTag cells
